This note sets out measurements from ChEMBL document CHEMBL5365411, “Synthesis of 1-(4-(dimethylamino)phenyl)-3,4-diphenyl-1H-pyrrole-2,5-dione analogues and their anti-inflammatory activities in lipopolysaccharide-induced BV2 cells” (Bioorg Med Chem Lett, 2023).

Calls of active or inactive are those of the source. No cut-off for these calls is given here. Where only a bound is given, the exact number is not on record here.

Series [1] deals with BV-2. As to the kind of experiment: Inhibition of LPS-induced NO release in mouse BV-2 cells at 20 uM incubated for 24 hrs by Griess assay relative to control. In kind it is functional.
Series [2] can be described thus: Cytotoxicity against LPS-induced mouse BV-2 cells assessed as cell viability at 20 uM incubated for 24 hrs by MTT assay relative to control. In kind it is toxicity, cell-based. The note with it: LPS-induced BV-2 cells, read-out: Activity.
Series [3] deals with BV-2. Description: Inhibition of LPS-induced NO release in mouse BV-2 cells up to 100 uM incubated for 24 hrs by Griess assay. In kind it is functional, cell-based. (Nitrite, measured by Griess reagent, commonly stands in for NO production.)
The test system of the next series is RAW264.7. Description: Inhibition of LPS-induced NO release in mouse RAW264.7 cells at 15 uM incubated for 24 hrs by Griess assay relative to control. In kind it is functional.
Series [4] concerns BV-2. As to the kind of experiment: Inhibition of LPS-induced NO release in mouse BV-2 cells incubated for 24 hrs by Griess assay. The format is functional, cell-based. Particulars: for IC50: BV-2, 24 h.
For series [5], the system named is BV-2. Description: Inhibition of LPS-induced NFkappaB activation in mouse BV2 cells assessed as reduction in p65 phosphorylated protein expression level pre-incubated for 30 mins followed by LPS addition by Western blot analysis. The format is cell-based. The note with it: dose 5-20 µM. A general note: A western blot detects proteins with antibodies after separation by electrophoresis.

The test system of series [6] is BV-2. Description: Anti-inflammatory activity against LPS-induced mouse BV-2 cells assessed as reduction in TNF-alpha mRNA expression pre-incubated for 1 hrs followed by LPS addition and measured after 6 hrs by RT-PCR method. In kind it is functional, cell-based. The note with it: dose 5-20 µM, time 7.0 hrs.
Series [7] is described as follows: Inhibition of LPS-induced ERK phosphorylation in mouse BV-2 cells pretreated for 30 mins followed by LPS stimulation by Western blot analysis. The format is cell-based. The note with it: dose 5-20 µM.
For series [8], the system named is BV-2. As to the kind of experiment: Anti-inflammatory activity against LPS-induced mouse BV-2 cells assessed as reduction in iNOS protein expression pre-incubated for 1 hrs followed by LPS addition and measured after 18 hrs by Western blot analysis. The note with it: dose 5-20 µM, time 19.0 hrs. In kind it is functional, cell-based.
Series [9] addresses MAP kinase p38 (Mus musculus) (UniProt P47811+O08911+Q9WUI1+Q9Z1B7). As to the kind of experiment: Inhibition of LPS-induced p38 phosphorylation in mouse BV-2 cells pretreated for 30 mins followed by LPS stimulation by Western blot analysis. In kind it is cell-based. Particulars: dose 5-20 µM.
Series [10] deals with c-Jun N-terminal kinase (Mus musculus) (UniProt Q91Y86+Q9WTU6+Q61831). Description: Inhibition of LPS-induced JNK phosphorylation in mouse BV-2 cells pretreated for 30 mins followed by LPS stimulation by Western blot analysis. In kind it is cell-based. Particulars: dose 5-20 µM.
c-Jun N-terminal kinase (Mus musculus), sequence (Q61831 whole entry, looked up): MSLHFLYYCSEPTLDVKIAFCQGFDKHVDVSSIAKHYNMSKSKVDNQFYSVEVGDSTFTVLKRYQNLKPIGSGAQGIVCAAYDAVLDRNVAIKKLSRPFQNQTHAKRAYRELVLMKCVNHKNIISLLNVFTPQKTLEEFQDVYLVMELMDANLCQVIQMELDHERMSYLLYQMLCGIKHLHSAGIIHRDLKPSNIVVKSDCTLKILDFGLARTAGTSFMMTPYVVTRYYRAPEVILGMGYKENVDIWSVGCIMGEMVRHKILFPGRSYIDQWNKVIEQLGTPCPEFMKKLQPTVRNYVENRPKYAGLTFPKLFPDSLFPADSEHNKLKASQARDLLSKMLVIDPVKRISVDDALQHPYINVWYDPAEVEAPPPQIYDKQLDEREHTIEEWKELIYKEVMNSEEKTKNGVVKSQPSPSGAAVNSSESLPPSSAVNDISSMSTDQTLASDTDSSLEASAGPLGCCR
c-Jun N-terminal kinase (Mus musculus), sequence (Q91Y86 whole entry, looked up): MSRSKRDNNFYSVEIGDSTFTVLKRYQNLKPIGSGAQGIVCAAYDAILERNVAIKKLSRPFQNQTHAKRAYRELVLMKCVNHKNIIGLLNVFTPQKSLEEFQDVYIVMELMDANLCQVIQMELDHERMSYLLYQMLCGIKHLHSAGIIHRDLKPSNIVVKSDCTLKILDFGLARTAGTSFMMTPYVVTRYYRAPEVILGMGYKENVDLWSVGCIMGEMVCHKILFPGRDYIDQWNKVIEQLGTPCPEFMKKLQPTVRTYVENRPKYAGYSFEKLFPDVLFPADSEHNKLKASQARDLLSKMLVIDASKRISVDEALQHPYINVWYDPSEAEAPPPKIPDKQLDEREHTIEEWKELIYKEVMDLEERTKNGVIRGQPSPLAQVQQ
c-Jun N-terminal kinase (Mus musculus), sequence (Q9WTU6 whole entry, looked up): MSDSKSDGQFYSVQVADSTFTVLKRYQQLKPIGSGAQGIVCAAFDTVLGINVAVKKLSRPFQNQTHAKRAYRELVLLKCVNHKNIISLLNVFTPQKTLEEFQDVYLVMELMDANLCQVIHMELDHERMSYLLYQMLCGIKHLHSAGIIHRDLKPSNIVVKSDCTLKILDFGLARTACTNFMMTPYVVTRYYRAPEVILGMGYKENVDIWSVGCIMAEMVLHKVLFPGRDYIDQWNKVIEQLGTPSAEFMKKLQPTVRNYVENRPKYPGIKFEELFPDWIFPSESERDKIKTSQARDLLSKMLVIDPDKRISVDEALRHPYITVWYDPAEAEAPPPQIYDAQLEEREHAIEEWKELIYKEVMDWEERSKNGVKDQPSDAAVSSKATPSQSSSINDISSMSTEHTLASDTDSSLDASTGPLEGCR
In series [11] the test system is BV-2. Description: Anti-inflammatory activity against LPS-induced mouse BV-2 cells assessed as reduction in IL-1beta mRNA expression pre-incubated for 1 hrs followed by LPS addition and measured after 6 hrs by RT-PCR method. In kind it is functional, cell-based. The note with it: dose 5-20 µM, time 7.0 hrs.
Series [12] has as its system BV-2. As to the kind of experiment: Anti-inflammatory activity against LPS-induced mouse BV-2 cells assessed as reduction in IL-6 mRNA expression pre-incubated for 1 hrs followed by LPS addition and measured after 6 hrs by RT-PCR method. In kind it is functional, cell-based. The note with it: dose 5-20 µM, time 7.0 hrs.
In series [13] the test system is BV-2. As to the kind of experiment: Cytotoxicity against LPS-induced mouse BV-2 cells assessed as cell viability at 2.5 to 20 uM incubated for 24 hrs by MTT assay. The format is toxicity, cell-based. The note with it: bv-2, 24 h, dose 2.5-20 µM. (In general: Tetrazolium dyes change colour on reduction, which living cells bring about.)
Series [14] deals with BV-2. Description: Inhibition of LPS-induced NFkappaB activation in mouse BV2 cells assessed as reduction in IkappaBalpha phosphorylated protein expression level pre-incubated for 30 mins followed by LPS addition by Western blot analysis. The note with it: dose 5-20 µM. The format is cell-based.
For series [15], the system named is BV-2. As to the kind of experiment: Anti-inflammatory activity against LPS-induced mouse BV-2 cells assessed as reduction in COX-2 mRNA expression pre-incubated for 1 hrs followed by LPS addition and measured after 6 hrs by RT-PCR method. In kind it is functional, cell-based. Particulars: dose 5-20 µM, time 7.0 hrs.
Series [16] concerns BV-2. As to the kind of experiment: Anti-inflammatory activity against LPS-induced mouse BV-2 cells assessed as reduction in iNOS mRNA expression pre-incubated for 1 hrs followed by LPS addition and measured after 6 hrs by RT-PCR method. The note with it: dose 5-20 µM, time 7.0 hrs. In kind it is functional, cell-based.
Series [17] relates to BV-2. As to the kind of experiment: Anti-inflammatory activity against LPS-induced mouse BV-2 cells assessed as reduction in COX-2 protein expression pre-incubated for 1 hrs followed by LPS addition and measured after 18 hrs by Western blot analysis. The note with it: dose 5-20 µM, time 19.0 hrs. The format is functional, cell-based.

Broadly, the inhibition is the drop in the measured response relative to a control, in per cent. With `CC(C)(C)c1ccc(N2C(=O)C(c3ccccc3)=C(c3ccccc3)C2=O)cc1`, the inhibition at 20 µM with BV-2 [1] was determined as 18.4%. The viability at 24 h, 20 µM in series [2] was 100%.

Consider `O=C1C(c2ccccc2)=C(c2ccccc2)C(=O)N1c1ccc(N2CCCCC2)cc1`, for which the inhibition at 20 µM in the series with BV-2 [1] was determined as 5.8%. Besides, in series [2], the viability at 24 h, 20 µM is 87.4%.

Regarding `N#Cc1ccc(N2C(=O)C(c3ccccc3)=C(c3ccccc3)C2=O)cc1`, the inhibition at 20 µM in the series with BV-2 [1] was 6.9%. The viability at 24 h, 20 µM in [2] came to 80%.

For the compound `O=C1CCC(N2C(=O)c3ccccc3C2=O)C(=O)N1` (centres undefined) [THALIDOMIDE], the inhibition entry with BV-2 [3] was “inactive”. Moreover, the inhibition at 20 µM in the series with BV-2 [1] amounted to 0%. Besides, the viability at 24 h, 20 µM in series [2] is 93.5%. At 15 µM the inhibition in the series with RAW264.7 was 15%.

On to `O=C1C(c2ccccc2)=C(c2ccccc2)C(=O)N1c1ccc(OC(F)(F)F)cc1`, for which, in the series on BV-2 [1], the inhibition at 20 µM turned out to be 12.9%. The viability at 24 h, 20 µM in series [2] is 94.5%.

One may read the IC50 as the concentration at which inhibition is half-maximal. In turn, `CN(C)c1ccccc1N1C(=O)C(c2ccccc2)=C(c2ccccc2)C1=O` gave an inhibition at 20 µM with BV-2 [1] of 81.6%. Also, in series [2], the viability at 24 h, 20 µM was 100%. The compound also had a half-inhibitory concentration (IC50) in the series with BV-2 [4] of 13.3 µM.

In the series with BV-2 [1], `O=C1C(c2ccccc2)=C(c2ccccc2)C(=O)N1c1ccc(C(F)(F)F)cc1` yielded an inhibition at 20 µM of 12.4%. For the same compound, the viability at 24 h, 20 µM in series [2] turned out to be 99.4%.

Take `CN(C)c1ccc(N2C(=O)C(c3ccccc3)=C(c3ccccc3)C2=O)cc1`: the inhibition at 20 µM in the series on BV-2 [1] came out at 83.5%. Also, the viability at 24 h, 20 µM in series [2] turned out to be 98.9%. Also, the inhibition result (in the series on BV-2 [5]; in series [9]; in the series with BV-2 [14]; in the series with BV-2 [4]) was “Dose-Dependent Effect” in each case. Further, the Activity entry in the series on BV-2 [6] is “Dose-Dependent Effect”; in the series on BV-2 [8], “Dose-Dependent Effect”; with BV-2 [11], “Dose-Dependent Effect”; in the series with BV-2 [12], “Dose-Dependent Effect”; in the series with BV-2 [13], “Non-Toxic”; in the series with BV-2 [15] it was “Dose-Dependent Effect”. For the same compound, the Activity result with BV-2 [16] and in the series on BV-2 [17] was “Dose-Dependent Effect” throughout. Besides, the inhibition result in [7] and in series [10] was “inactive” each time. Besides, in the series on BV-2 [4], the IC50 amounted to 7.1 µM.

The compound `O=C1C(c2ccccc2)=C(c2ccccc2)C(=O)N1c1ccc(I)cc1` had an inhibition at 20 µM in the series with BV-2 [1] of 22.5%. Moreover, the viability at 24 h, 20 µM in [2] turned out to be 100%.

Take `O=C1C(c2ccccc2)=C(c2ccccc2)C(=O)N1c1ccc(Br)cc1`: the inhibition at 20 µM in the series with BV-2 [1] was 11.5%. In addition, in series [2], the viability at 24 h, 20 µM came out at 95.7%.

Turning to `O=C1C(c2ccccc2)=C(c2ccccc2)C(=O)N1c1ccccc1`, the inhibition at 20 µM with BV-2 [1] stood at 22.5%. Besides, the viability at 24 h, 20 µM in series [2] was 93.3%.

Consider `O=C1C(c2ccccc2)=C(c2ccccc2)C(=O)N1Cc1ccccc1`, for which, in the series on BV-2 [1], testing at 20 µM gave an inhibition of 21.9%. In addition, in [2], the viability at 24 h, 20 µM was 100%.

As to `CC(C)(C)OC(=O)Nc1ccc(N2C(=O)C(c3ccccc3)=C(c3ccccc3)C2=O)cc1`, 20 µM produced 39.6% inhibition with BV-2 [1]. In addition, the viability at 24 h, 20 µM in series [2] is 97.1%.

`Nc1ccc(N2C(=O)C(c3ccccc3)=C(c3ccccc3)C2=O)cc1` showed an inhibition at 20 µM in the series with BV-2 [1] of 27.6%. Moreover, in series [2], the viability at 24 h, 20 µM is 90.2%.

As for `O=C1C(c2ccccc2)=C(c2ccccc2)C(=O)N1c1ccc([N+](=O)[O-])cc1`, at 20 µM the inhibition with BV-2 [1] was 19.3%. Moreover, in series [2], the viability at 24 h, 20 µM came out at 99.4%.

Compound `COc1ccc(N2C(=O)C(c3ccccc3)=C(c3ccccc3)C2=O)cc1` gave an inhibition at 20 µM in the series with BV-2 [1] of 32.3%. In addition, the viability at 24 h, 20 µM in [2] is 97.2%.

The compound `Cc1ccc(N2C(=O)C(c3ccccc3)=C(c3ccccc3)C2=O)cc1` gave an inhibition at 20 µM with BV-2 [1] of 25.8%. Also, the viability at 24 h, 20 µM in [2] was 97.8%.

`O=C1C(c2ccccc2)=C(c2ccccc2)C(=O)N1c1ccc(F)cc1` showed an inhibition at 20 µM with BV-2 [1] of 10.3%. In series [2], the viability at 24 h, 20 µM was 100%.

Turning to `O=C1C(c2ccccc2)=C(c2ccccc2)C(=O)N1c1ccc(Cl)cc1`, in the series on BV-2 [1], the inhibition at 20 µM stood at 16%. For the same compound, in series [2], the viability at 24 h, 20 µM was determined as 93.9%.

`O=C1C(c2ccccc2)=C(c2ccccc2)C(=O)N1CCc1ccccc1` returned an inhibition at 20 µM in the series on BV-2 [1] of 14.2%. Further, the viability at 24 h, 20 µM in [2] turned out to be 100%.

`CN(C)c1cccc(N2C(=O)C(c3ccccc3)=C(c3ccccc3)C2=O)c1` yielded an inhibition at 20 µM with BV-2 [1] of 82.1%. Also, the viability at 24 h, 20 µM in series [2] came to 90.2%. The same compound gave a concentration for half-maximal inhibition (IC50) in the series with BV-2 [4] of 12.7 µM.

`O=C1CCC(N2C(=O)C(c3ccccc3)=C(c3ccccc3)C2=O)C(=O)N1` (centres undefined) displayed an inhibition at 20 µM in the series with BV-2 [1] of 10.2%. In addition, in series [2], the viability at 24 h, 20 µM amounted to 98.5%. This compound also came in with an IC50 in the series with BV-2 [4] above 50 µM.
